Values of other authors in patent publication US6417229B1, “α-sulfonylamino hydroxamic acid inhibitors of matrix metalloproteinases for the treatment of peripheral or central nervous system disorders” (Pfizer Inc, priority 1999, dated 2002).

Columns and labels:
[1] = tested on: Experimental Autoimmune Neuritis (EAN); conditions: Redford et al. 1997
[2] = tested on: Experimental Autoimmune Encephelomyelitis (EAE); conditions: mice with EAE; Gijbels 1994
MMP-9 induction by Aβ = conditions: rat microglia; Gottschall 1996

## C=CC[C@H](C(=O)NO)[C@@H](CC(C)C)C(=O)N[C@@H](Cc1ccccc1)C(=O)NC [BB-1101]
[1]
  effect on EAN: attenuates Experimental Autoimmune Neuritis (EAN)

## CNC(=O)[C@H](Cc1c[nH]c2ccccc12)NC(=O)[C@@H](CC(=O)NO)CC(C)C [GM6001]
[2]
  effect on EAE: suppress the development of, or reverse established, EAE

## COc1ccc2c(c1)c(CC(=O)O)c(C)n2C(=O)c1ccc(Cl)cc1 [indomethacin]
MMP-9 induction by Aβ
  inhibition of MMP-9 induction by Aβ: can be inhibited
